The test has as its target T1, proton pump (H+/K+-ATPase) (Sus scrofa, UniProt P19156).
T1 construct: Gastric vesicles were prepared from hog stomach via centrifugal separation; from tissue; host or cells: hog stomach (gastric vesicles, method of Rabon et al. 1988)
Kind of test: Measurement of inhibitory effects on proton pump (H+/K+-ATPase) activities. The format is biochemical. The settings on record: hog gastric vesicles, K+-specific H+/K+-ATPase activity, Tris-HCl buffer pH 7.4, 37° C. for 40 minutes, malachite green Pi readout. As for the experimental part:
1) Preparation of Gastric Vesicles
Gastric vesicles were prepared from hog stomach via centrifugal separation (Edd C. Rabon et al., Preparation of Gastric H^+,K^+-ATPase, Methods in enzymology, vol. 157 Academic Press Inc., (1988), pp. 649-654). The protein contents of the thus prepared gastric vesicles were quantitated by Bicinchoninic Acid (BCA) kit.
2) Measurement of Inhibitory Effects on Proton Pump (H^+/K^+-ATPase) Activities
The inhibitory effects of the compounds of the present invention against proton pump activities were measured using a 96-well plate. In this assay, the K^+-specific H^+/K^+-ATPase activities were calculated based on the difference between the H^+/K^+-ATPase activity in the presence of K^+ and that in the absence of K. In the 96-well plate, 0.5% dimethyl sulfoxide (DMSO) in buffer was added to the negative and positive control groups, and the diluted compounds of the present invention were added to the test groups. All assays were performed in a reaction volume of 100 μl at room temperature. The reaction buffer solution (60 mmol/l Tris-HCl buffer, pH 7.4) including the hog gastric vesicles was added with DMSO and the compounds at various concentrations, and then further added with 10 μl of 10 mmol/1 adenosine triphosphate Tris buffer solution (60 mmol/l Tris-HCl buffer, pH 7.4) to initiate an enzyme reaction. […] The amount of monophosphate (Pi) in the reaction was measured at 570 nm using a micro plate reader (FLUOstar Omega, BMG LABTECH). The inhibition rates (%) were determined from the activity values of control groups and those of test compounds at various concentrations, and the […] of the test compounds were calculated based on the respective inhibition value (%) using the Logistic 4-parameter function of Sigmaplot 8.0 program.

Where a name gives a salt, the structure may show the parent alone.

T1 sequence (P19156 whole entry): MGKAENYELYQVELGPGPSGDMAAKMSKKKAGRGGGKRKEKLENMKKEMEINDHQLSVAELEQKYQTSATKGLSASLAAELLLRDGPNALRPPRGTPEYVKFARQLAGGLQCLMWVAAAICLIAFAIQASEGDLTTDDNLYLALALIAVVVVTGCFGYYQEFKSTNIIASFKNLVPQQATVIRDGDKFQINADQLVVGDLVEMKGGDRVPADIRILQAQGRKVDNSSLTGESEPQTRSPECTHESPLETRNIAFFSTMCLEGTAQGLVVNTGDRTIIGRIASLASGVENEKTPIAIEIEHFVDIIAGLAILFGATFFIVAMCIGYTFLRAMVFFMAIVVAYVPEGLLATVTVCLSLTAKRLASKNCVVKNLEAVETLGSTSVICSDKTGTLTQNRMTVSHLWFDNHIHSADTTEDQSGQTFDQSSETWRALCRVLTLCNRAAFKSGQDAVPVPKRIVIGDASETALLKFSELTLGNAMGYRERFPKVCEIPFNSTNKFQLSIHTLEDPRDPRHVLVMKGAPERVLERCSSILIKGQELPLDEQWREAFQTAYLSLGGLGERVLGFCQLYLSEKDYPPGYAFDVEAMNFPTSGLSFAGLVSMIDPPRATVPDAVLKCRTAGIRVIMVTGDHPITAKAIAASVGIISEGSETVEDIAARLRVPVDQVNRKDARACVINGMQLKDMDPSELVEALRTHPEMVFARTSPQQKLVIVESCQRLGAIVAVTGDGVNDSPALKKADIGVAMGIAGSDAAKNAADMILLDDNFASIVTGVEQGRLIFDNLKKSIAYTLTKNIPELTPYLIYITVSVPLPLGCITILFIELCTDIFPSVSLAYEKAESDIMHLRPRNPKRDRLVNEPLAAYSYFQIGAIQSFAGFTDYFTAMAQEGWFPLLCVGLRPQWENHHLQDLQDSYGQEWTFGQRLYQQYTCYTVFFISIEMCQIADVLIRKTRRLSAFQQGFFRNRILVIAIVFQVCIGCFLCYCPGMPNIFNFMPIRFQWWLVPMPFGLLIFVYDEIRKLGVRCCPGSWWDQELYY
T1 sequence (P18434 whole entry partner): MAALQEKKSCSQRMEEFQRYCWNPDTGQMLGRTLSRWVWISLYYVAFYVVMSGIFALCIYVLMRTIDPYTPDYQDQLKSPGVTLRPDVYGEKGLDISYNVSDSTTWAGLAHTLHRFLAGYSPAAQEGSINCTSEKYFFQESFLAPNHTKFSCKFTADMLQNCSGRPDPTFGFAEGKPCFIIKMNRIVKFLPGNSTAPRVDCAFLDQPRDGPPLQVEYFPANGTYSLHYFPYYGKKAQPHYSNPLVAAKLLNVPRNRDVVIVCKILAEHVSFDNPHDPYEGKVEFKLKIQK

Compound `CCc1cc(C#N)ccc1Nc1ccc2c(CNC)cn(S(=O)(=O)c3cccnc3)c2c1` [Example 37, 3-ethyl-4-((3-((methylamino)methyl)-1-(pyridin-3-ylsulfonyl)-1H-indol-6-yl)amino)benzonitrile hydrochloride] yielded an IC50 of 500 nM.

`CNCc1cn(S(=O)(=O)c2cccnc2)c2cc(Nc3ccc(C#N)cc3F)ccc12` [Example 38, 3-fluoro-4-((3-((methylamino)methyl)-1-(pyridin-3-ylsulfonyl)-1H-indol-6-yl)amino)benzonitrile hydrochloride]: the midpoint of inhibition, the IC50, lay at 2190 nM.

In turn, `CNCc1cn(S(=O)(=O)c2cccnc2)c2cc(Nc3ccc(C#N)cc3Cl)ccc12` [Example 39, 3-chloro-4-((3-((methylamino)methyl)-1-(pyridin-3-ylsulfonyl)-1H-indol-6-yl)amino)benzonitrile hydrochloride] displayed an IC50 of 130 nM. This IC50 is about 17-fold lower than that of the compound before.

Compound `CNCc1cn(S(=O)(=O)c2cccnc2)c2cc(Nc3ccc(C#N)cc3C(F)(F)F)ccc12` [Example 40, 4-((3-((methylamino)methyl)-1-(pyridin-3-ylsulfonyl)-1H-indol-6-yl)amino)-3-(trifluoromethyl)benzonitrile hydrochloride] gave an IC50 of 1830 nM.

For the compound `CNCc1cn(S(=O)(=O)c2cccnc2)c2cc(Nc3ccc([N+](=O)[O-])cc3Cl)ccc12` [Example 41, N-(2-chloro-4-nitrophenyl)-3-((methylamino)methyl)-1-(pyridin-3-ylsulfonyl)-1H-indol-6-amine hydrochloride], the IC50 stood at 480 nM.

In turn, `CNCc1cn(S(=O)(=O)c2cccnc2)c2cc(Nc3ccc([N+](=O)[O-])cc3C)ccc12` [Example 42, N-(2-methyl-4-nitrophenyl)-3-((methylamino)methyl)-1-(pyridin-3-ylsulfonyl)-1H-indol-6-amine hydrochloride] showed an IC50 of 340 nM.

Consider `CCc1cc(Br)ccc1Nc1ccc2c(CNC)cn(S(=O)(=O)c3cccnc3)c2c1` [Example 43, N-(4-bromo-2-ethylphenyl)-3-((methylamino)methyl)-1-(pyridin-3-ylsulfonyl)-1H-indol-6-amine hydrochloride], for which half-maximal inhibition (IC50) was put at 3020 nM.

For `CNCc1cn(S(=O)(=O)c2cccnc2)c2cc(Nc3ccc(Br)cc3Cl)ccc12` [Example 44, N-(4-bromo-2-chlorophenyl)-3-((methylamino)methyl)-1-(pyridin-3-ylsulfonyl)-1H-indol-6-amine hydrochloride], the IC50 was found to be 270 nM.

Regarding `CNCc1cn(S(=O)(=O)c2cccnc2)c2cc(Nc3ccc(Br)cc3C(F)(F)F)ccc12` [Example 45, N-(4-bromo-2-(trifluoromethyl)phenyl)-3-((methylamino)methyl)-1-(pyridin-3-ylsulfonyl)-1H-indol-6-amine hydrochloride], half-maximal inhibition (IC50) required 1200 nM.

Regarding `CNCc1cn(S(=O)(=O)c2cccnc2)c2cc(Nc3ccc(Br)cc3OC(F)(F)F)ccc12` [Example 46, N-(4-bromo-2-(trifluoromethoxy)phenyl)-3-((methylamino)methyl)-1-(pyridin-3-ylsulfonyl)-1H-indol-6-amine hydrochloride], it took 2350 nM to reach half-maximal inhibition (IC50). This IC50 is about 2-fold higher than that of the compound before.

In turn, `CNCc1cn(S(=O)(=O)c2cccnc2)c2cc(Nc3ccc(O)cc3C)ccc12` [Example 47, 3-methyl-4-((3-((methylamino)methyl)-1-(pyridin-3-ylsulfonyl)-1H-indol-6-yl)amino)phenol hydrochloride] registered an IC50 of 840 nM. This IC50 is about 2.8-fold lower than that of the compound before.

With `CNCc1cn(S(=O)(=O)c2cccnc2)c2cc(Nc3ccc(OC)cc3C)ccc12` [Example 48, N-(4-methoxy-2-methylphenyl)-3-((methylamino)methyl)-1-(pyridin-3-ylsulfonyl)-1H-indol-6-amine hydrochloride], the midpoint of inhibition, the IC50, lay at 260 nM.

Regarding `CNCc1cn(S(=O)(=O)c2cccnc2)c2cc(Nc3ccc(OC)cc3F)ccc12` [Example 49, N-(2-fluoro-4-methoxyphenyl)-3-((methylamino)methyl)-1-(pyridin-3-ylsulfonyl)-1H-indol-6-amine hydrochloride], the IC50 is 320 nM.

With `CNCc1cn(S(=O)(=O)c2cccnc2)c2cc(Nc3ccc(OC)cc3C(F)(F)F)ccc12` [Example 51, N-(4-methoxy-2-(trifluoromethyl)phenyl)-3-((methylamino)methyl)-1-(pyridin-3-ylsulfonyl)-1H-indol-6-amine hydrochloride], the IC50 stood at 1200 nM. This IC50 is about 3.8-fold higher than that of the compound before.

Regarding `CNCc1cn(S(=O)(=O)c2cccnc2)c2cc(Nc3ccc(OC(F)(F)F)cc3F)ccc12` [Example 54, N-(2-fluoro-4-(trifluoromethoxy)phenyl)-3-((methylamino)methyl)-1-(pyridin-3-ylsulfonyl)-1H-indol-6-amine hydrochloride], the IC50 is 1050 nM. This IC50 and that of the compound before are within 1.5-fold of each other.

Consider `CNCc1cn(S(=O)(=O)c2cccnc2)c2cc(Nc3ccc(C(=O)OC)cc3Cl)ccc12` [Example 57, methyl 3-chloro-4-((3-((methylamino)methyl)-1-(pyridin-3-ylsulfonyl)-1H-indol-6-yl)amino)benzoate hydrochloride], for which it took 430 nM to reach half-maximal inhibition (IC50). Compared with the last compound, the IC50 is about 2.4-fold lower.

Regarding `CNCc1cn(S(=O)(=O)c2cccnc2)c2cc(Nc3cc(F)ccc3F)ccc12` [Example 58, N-(2,5-difluorophenyl)-3-((methylamino)methyl)-1-(pyridin-3-ylsulfonyl)-1H-indol-6-amine hydrochloride], the IC50 amounted to 410 nM.

`CNCc1cn(S(=O)(=O)c2cccnc2)c2cc(Nc3cc(C)ccc3F)ccc12` [Example 59, N-(2-fluoro-5-methylphenyl)-3-((methylamino)methyl)-1-(pyridin-3-ylsulfonyl)-1H-indol-6-amine hydrochloride] displayed an IC50 of 350 nM.

Compound `CNCc1cn(S(=O)(=O)c2cccnc2)c2cc(Nc3c(F)cccc3F)ccc12` [Example 60, N-(2,6-difluorophenyl)-3-((methylamino)methyl)-1-(pyridin-3-ylsulfonyl)-1H-indol-6-amine hydrochloride] showed an IC50 of 2460 nM.

`CNCc1cn(S(=O)(=O)c2cccnc2)c2cc(Nc3c(C)cccc3Cl)ccc12` [Example 61, N-(2-chloro-6-methylphenyl)-3-((methylamino)methyl)-1-(pyridin-3-ylsulfonyl)-1H-indol-6-amine hydrochloride] returned an IC50 of 290 nM.

In the case of `CNCc1cn(S(=O)(=O)c2cccnc2)c2cc(Nc3ccc(F)c(F)c3)ccc12` [Example 62, N-(3,4-difluorophenyl)-3-((methylamino)methyl)-1-(pyridin-3-ylsulfonyl)-1H-indol-6-amine hydrochloride], it took 930 nM to reach half-maximal inhibition (IC50).

Compound `CNCc1cn(S(=O)(=O)c2cccnc2)c2cc(Nc3cc(OC)cc(OC)c3)ccc12` [Example 63, N-(3,5-dimethoxyphenyl)-3-((methylamino)methyl)-1-(pyridin-3-ylsulfonyl)-1H-indol-6-amine hydrochloride] had an IC50 of 1310 nM.

`CNCc1cn(S(=O)(=O)c2cccnc2)c2cc(Nc3cc(Cl)cc(Cl)c3)ccc12` [Example 64, N-(3,5-dichlorophenyl)-3-((methylamino)methyl)-1-(pyridin-3-ylsulfonyl)-1H-indol-6-amine hydrochloride] came in with an IC50 of 1840 nM.

`CNCc1cn(S(=O)(=O)c2cccnc2)c2cc(Nc3ccc(F)c(C)c3C)ccc12` [Example 66, N-(4-fluoro-2,3-dimethylphenyl)-3-((methylamino)methyl)-1-(pyridin-3-ylsulfonyl)-1H-indol-6-amine hydrochloride]: 270 nM corresponded to half-maximal inhibition (IC50). This IC50 lies about 6.8-fold lower than the previous one.

As to `CNCc1cn(S(=O)(=O)c2cccnc2)c2cc(Nc3ccc(F)c(F)c3F)ccc12` [Example 67, 3-((methylamino)methyl)-1-(pyridin-3-ylsulfonyl)-N-(2,3,4-trifluorophenyl)-1H-indol-6-amine hydrochloride], the IC50 is 380 nM.

`CNCc1cn(S(=O)(=O)c2cccnc2)c2cc(Nc3ccc(F)c(OC)c3F)ccc12` [Example 68, N-(2,4-difluoro-3-methoxyphenyl)-3-((methylamino)methyl)-1-(pyridin-3-ylsulfonyl)-1H-indol-6-amine hydrochloride] had an IC50 of 2390 nM.

The compound `CCOc1c(F)ccc(Nc2ccc3c(CNC)cn(S(=O)(=O)c4cccnc4)c3c2)c1F` [Example 69, N-(3-ethoxy-2,4-difluorophenyl)-3-((methylamino)methyl)-1-(pyridin-3-ylsulfonyl)-1H-indol-6-amine hydrochloride] yielded an IC50 of 2350 nM. The IC50 values of the last two compounds are within 1.5-fold of each other.

Turning to `CNCc1cn(S(=O)(=O)c2cccnc2)c2cc(Nc3ccc(OC)c(F)c3F)ccc12` [Example 70, N-(2,3-difluoro-4-methoxyphenyl)-3-((methylamino)methyl)-1-(pyridin-3-ylsulfonyl)-1H-indol-6-amine hydrochloride], the IC50 turned out to be 300 nM.

Consider `CCOc1ccc(Nc2ccc3c(CNC)cn(S(=O)(=O)c4cccnc4)c3c2)c(F)c1F` [Example 71, N-(4-ethoxy-2,3-difluorophenyl)-3-((methylamino)methyl)-1-(pyridin-3-ylsulfonyl)-1H-indol-6-amine hydrochloride], for which the IC50 amounted to 430 nM.

The values above are taken from patent US9676714B2, “Sulfonylindole derivatives and method for preparing the same” (Daewoong Pharmaceutical Co., Ltd., priority 2013, dated 2017).
